These results are taken from patent publication US20230090884A1, “DEVICE AND METHODS FOR ISOLATING EXTRACELLULAR MATRIX BODIES” (AUFBAU MEDICAL INNOVATIONS LIMITED, priority 2020, published 2023).

The nature of this experiment: Dose-response in microfluidic chip device: change in chip pressure (intraocular pressure model) after treatment of bovine vitreous humor. Conditions: 12.5% homogenized BVH in PBS incubated with compound at 37° C. for 1 hour; 7 ul injected; relative change in chip pressure recorded for 50 min; half-maximal response; read-out: EC50 for treatment of bovine vitreous humor (glaucoma model). The protocol:
The compound bivalirudin TFA was tested in bovine vitreous humor (BVH) in a microfluidic chip device. A solution of 25% homogenized BVH in PBS buffer was prepared and diluted with an equal amount of a solution of the compound, so that the total BVH concentration was 12.5%. The sample was vortexed and incubated at 37° C. for 1 hour. A control of either PBS buffer or PBS with 10% ethanol or DMSO was used and incubated with BVH under the same conditions.
The test compound-BVH solution was introduced into the reservoir of the microfluidic chip device and flow rate and pressure change were recorded. Various concentrations of the compound were tested for effects on the treatment of bovine vitreous humor. 7 ul of each test solution was injected into the microfluidic chip through a sample injector. Recording of the flow rate and pressure change was continued for 50 additional minutes after the sample injection. The relative change in chip pressure for the entire course of the experiment was obtained.
The EC50 value was taken as the point on the x-axis at which the logarithmic function of the micromolar concentration of the compound produced half-maximal response. […] The response was calculated by taking the absolute difference between the control and test value for each concentration. […]

For the substance bivalirudin TFA, the EC50 turned out to be 1.2 nM.

Take polymyxin B sulfate: the EC50 stood at 4.3 nM.

For orientation: EC50 means the concentration needed to bring the measured effect to its halfway point.
